Consider two compounds from patent publication US12465616B2, “Methods and compositions for disrupting biofilm utilizing chitosan-derivative compounds” (SYNEDGEN, INC., priority 2009, dated 2025).

In this experiment the test system is MRSA MW-2. Description: Prophylactic activity on pigskin. The class given is cell-based, Staphylococcus aureus. Conditions: treatment dried 1-hour, about 10^3 CFU for 1-hour; chitosan-arginine 60 μg/cm^2 in 70% ethanol (21 kDa, 29% functionalized, FIG. 24); hydrogen peroxide 3%.

On to `CCO` [70% ethanol, ethanol], for which the “prophylactic activity, qualitative CFU recovered from treated skin surface” value is “no prophylactic activity”. `OO` [hydrogen peroxide]: the “prophylactic activity, qualitative CFU recovered from treated skin surface” value is listed as “no prophylactic activity”.
